Measurements: ChEMBL document CHEMBL1130913, “Synthesis and antibacterial in vitro activity of novel analogues of nematophin” (1998)
Converted amounts (≈) assume the structure as drawn.

Columns and labels:
[1] = system: Staphylococcus intermedius; assay: In vitro inhibitory activity in iso sensitest agar against Staphylococcus intermedius strain ATCC 29663; format: functional
Staphylococcus aureus [2] = assay: In vitro inhibitory activity in iso sensitest agar against Staphylococcus aureus strain ATCC 25923; format: functional
Staphylococcus aureus [3] = assay: In vitro inhibitory activity in iso sensitest agar against Staphylococcus aureus strain ATCC 29213; format: functional
Staphylococcus aureus [4] = assay: In vitro inhibitory activity in iso sensitest agar against Staphylococcus aureus strain ATCC 6538; format: functional
Staphylococcus hyicus [5] = assay: In vitro inhibitory activity in iso sensitest agar against Staphylococcus hyicus strain ATCC 9621; format: functional
Staphylococcus hyicus [6] = assay: In vitro inhibitory activity in iso sensitest agar against Staphylococcus hyicus strain ATCC 9622; format: functional
[7] = system: Staphylococcus intermedius; assay: In vitro inhibitory activity in iso sensitest agar against Staphylococcus intermedius strain ATCC 9503; format: functional
[8] = system: Staphylococcus intermedius; assay: In vitro inhibitory activity in iso sensitest agar against Staphylococcus intermedius strain ATCC 29663 in addition with 5%serum; format: functional
[9] = system: Staphylococcus intermedius; assay: In vitro inhibitory activity in iso sensitest agar against Staphylococcus intermedius strain ATCC 9503 in addition with 5%serum; format: functional
Staphylococcus aureus [10] = assay: In vitro inhibitory activity in iso sensitest agar against Staphylococcus aureus strain ATCC 25923 in addition with 5%serum; format: functional
Staphylococcus aureus [11] = assay: In vitro inhibitory activity in iso sensitest agar against Staphylococcus aureus strain ATCC 29213 in addition with 5%serum; format: functional
Staphylococcus aureus [12] = assay: In vitro inhibitory activity in iso sensitest agar against Staphylococcus aureus strain ATCC 6538 in addition with 5%serum; format: functional
Staphylococcus hyicus [13] = assay: In vitro inhibitory activity in iso sensitest agar against Staphylococcus hyicus strain ATCC 9622 in addition with 5%serum; format: functional
Staphylococcus hyicus [14] = assay: In vitro inhibitory activity in iso sensitest agar against Staphylococcus hyicus strain ATCC 9621 in addition with 5%serum; format: functional
[15] = system: Staphylococcus intermedius; assay: In vitro inhibitory activity in iso sensitest agar against Staphylococcus intermedius strain ATCC 9503 in addition with 0.5%blood; format: functional
[16] = system: Staphylococcus intermedius; assay: In vitro inhibitory activity in iso sensitest agar against Staphylococcus intermedius strain ATCC 9503 in addition with 0.5%serum; format: functional
[17] = system: Staphylococcus intermedius; assay: In vitro inhibitory activity in iso sensitest agar against Staphylococcus intermedius strain ATCC 9503 in addition with 5%blood; format: functional
Staphylococcus aureus [18] = assay: In vitro inhibitory activity in iso sensitest agar against Staphylococcus aureus strain ATCC 6538 in addition with 0.5%blood; format: functional
Staphylococcus aureus [19] = assay: In vitro inhibitory activity in iso sensitest agar against Staphylococcus aureus strain ATCC 6538 in addition with 5%blood; format: functional
Staphylococcus hyicus [20] = assay: In vitro inhibitory activity in iso sensitest agar against Staphylococcus hyicus strain ATCC 9622 in addition with 5%blood; format: functional
Staphylococcus hyicus [21] = assay: In vitro inhibitory activity in iso sensitest agar against Staphylococcus hyicus strain ATCC 9621 in addition with 0.5%blood; format: functional
Staphylococcus hyicus [22] = assay: In vitro inhibitory activity in iso sensitest agar against Staphylococcus hyicus strain ATCC 9621 in addition with 0.5%serum; format: functional
Staphylococcus hyicus [23] = assay: In vitro inhibitory activity in iso sensitest agar against Staphylococcus hyicus strain ATCC 9621 in addition with 5%blood; format: functional
Staphylococcus hyicus [24] = assay: In vitro inhibitory activity in iso sensitest agar against Staphylococcus hyicus strain ATCC 9622 in addition with 0.5%blood; format: functional
Staphylococcus hyicus [25] = assay: In vitro inhibitory activity in iso sensitest agar against Staphylococcus hyicus strain ATCC 9622 in addition with 0.5%serum; format: functional
Staphylococcus aureus [26] = assay: In vitro inhibitory activity in iso sensitest agar against Staphylococcus aureus strain ATCC 6538 in addition with 0.5%serum; format: functional
Staphylococcus hyicus [27] = assay: In vitro minimum inhibitory concentration in iso sensitest agar against Staphylococcus hyicus strain ATCC 9622; format: functional
Staphylococcus hyicus [28] = assay: In vitrIn vitro inhibitory activity in iso sensitest agar against Staphylococcus hyicus strain ATCC 9621; format: functional
Staphylococcus aureus [29] = assay: In vitro inhibitory activity in iso sensitest agar against Staphylococcus aureus strain ATCC 6538 in addition with 5%serum
Staphylococcus aureus [30] = assay: In vitro inhibitory activity in iso sensitest agar against Staphylococcus aureus strain ATCC 6538 in addition with 5%blood
Staphylococcus aureus [31] = assay: In vitro inhibitory activity in iso sensitest agar against Staphylococcus aureus strain ATCC 6538 in addition with 0.5%serum

SMILES	MIC [1] [mg/L]	MIC (Staphylococcus aureus [2]) [mg/L]	MIC (Staphylococcus aureus [3]) [mg/L]	MIC (Staphylococcus aureus [4]) [mg/L]	MIC (Staphylococcus hyicus [5]) [mg/L]	MIC (Staphylococcus hyicus [6]) [mg/L]	MIC [7] [mg/L]	MIC [8] [mg/L]	MIC [9] [mg/L]	MIC (Staphylococcus aureus [10]) [mg/L]	MIC (Staphylococcus aureus [11]) [mg/L]	MIC (Staphylococcus aureus [12]) [mg/L]	MIC (Staphylococcus hyicus [13]) [mg/L]	MIC (Staphylococcus hyicus [14]) [mg/L]	also measured
CC(C)CC(=O)C(=O)NCCc1c[nH]c2ccccc12	2 (≈ 7.34 µM)	0.25 (≈ 0.918 µM)	0.25 (≈ 0.918 µM)	0.125 (≈ 0.459 µM)	0.25 (≈ 0.918 µM)	0.03 (≈ 0.11 µM)	1 (≈ 3.67 µM)								
CC(C)CC(=O)C(=O)NCCc1cn(C(C)C)c2ccccc12	2 (≈ 6.36 µM)	0.06 (≈ 0.191 µM)	0.25 (≈ 0.795 µM)	0.125 (≈ 0.398 µM)	0.06 (≈ 0.191 µM)	0.25 (≈ 0.795 µM)	1 (≈ 3.18 µM)	32 (≈ 102 µM)	64 (≈ 204 µM)	32 (≈ 102 µM)	32 (≈ 102 µM)	> 64	> 64	> 64	
CCC(C)C(=O)C(=O)NCCc1c[nH]c2ccccc12 (configuration not stated)	8 (≈ 29.4 µM)	0.125 (≈ 0.459 µM)	0.125 (≈ 0.459 µM)	0.25 (≈ 0.918 µM)	1 (≈ 3.67 µM)	0.5 (≈ 1.84 µM)	2 (≈ 7.34 µM)	16 (≈ 58.7 µM)	16 (≈ 58.7 µM)	4 (≈ 14.7 µM)	4 (≈ 14.7 µM)	> 64	> 64	> 64	MIC [15]: 1 mg/L (≈ 3.67 µM); MIC [16]: 8 mg/L (≈ 29.4 µM); MIC [17]: > 128 mg/L; MIC (Staphylococcus aureus [18]): > 128 mg/L; MIC (Staphylococcus aureus [19]): > 128 mg/L; MIC (Staphylococcus hyicus [20]): > 128 mg/L; MIC (Staphylococcus hyicus [21]): 0.25 mg/L (≈ 0.918 µM); MIC (Staphylococcus hyicus [22]): > 128 mg/L; MIC (Staphylococcus hyicus [23]): > 128 mg/L; MIC (Staphylococcus hyicus [24]): 0.125 mg/L (≈ 0.459 µM); MIC (Staphylococcus hyicus [25]): 1 mg/L (≈ 3.67 µM); MIC (Staphylococcus aureus [26]): > 128 mg/L
CC(C)CC(=O)C(=O)NCCc1cn(C)c2ccccc12	2 (≈ 6.98 µM)	0.03 (≈ 0.105 µM)	0.03 (≈ 0.105 µM)	0.03 (≈ 0.105 µM)	0.03 (≈ 0.105 µM)	0.03 (≈ 0.105 µM)	0.5 (≈ 1.75 µM)	16 (≈ 55.9 µM)	32 (≈ 112 µM)	16 (≈ 55.9 µM)	16 (≈ 55.9 µM)	> 64	> 64	> 64	
CC(C)CC(=O)C(=O)NCCc1cn(-c2ccccc2)c2ccccc12	1 (≈ 2.87 µM)	0.06 (≈ 0.172 µM)	0.06 (≈ 0.172 µM)	0.03 (≈ 0.0861 µM)			0.125 (≈ 0.359 µM)	> 64	> 64	> 64	> 64	> 64	> 64	> 64	MIC (Staphylococcus hyicus [27]): 0.015 mg/L (≈ 0.043 µM); MIC (Staphylococcus hyicus [28]): 0.06 mg/L (≈ 0.172 µM)
CCC(C)C(=O)C(=O)NCCc1cn(Cc2ccccc2)c2ccccc12 (configuration not stated)	8 (≈ 22.1 µM)	0.125 (≈ 0.345 µM)	0.125 (≈ 0.345 µM)	0.125 (≈ 0.345 µM)	1 (≈ 2.76 µM)	1 (≈ 2.76 µM)	2 (≈ 5.52 µM)	> 64	> 64	16 (≈ 44.1 µM)	16 (≈ 44.1 µM)	> 64	> 64	> 64	
CC(C)CC(=O)C(=O)NCCc1cn(Cc2ccccc2)c2ccccc12	> 64	2 (≈ 5.52 µM)	2 (≈ 5.52 µM)	1 (≈ 2.76 µM)	1 (≈ 2.76 µM)	2 (≈ 5.52 µM)	2 (≈ 5.52 µM)	> 64	> 64	> 64	> 64	> 64	> 64	> 64	
CCC(C)C(=O)C(=O)NCCc1cn(C(C)C)c2ccccc12 (configuration not stated)	4 (≈ 12.7 µM)	0.03 (≈ 0.0954 µM)	0.03 (≈ 0.0954 µM)	0.03 (≈ 0.0954 µM)	1 (≈ 3.18 µM)	0.5 (≈ 1.59 µM)	2 (≈ 6.36 µM)	> 32	> 32	16 (≈ 50.9 µM)	8 (≈ 25.4 µM)	> 32	> 32	> 32	
CCC(C)C(=O)C(=O)NCCc1cn(C)c2ccccc12 (configuration not stated)	2 (≈ 6.98 µM)	0.015 (≈ 0.0524 µM)	0.015 (≈ 0.0524 µM)	0.015 (≈ 0.0524 µM)	0.06 (≈ 0.21 µM)	0.06 (≈ 0.21 µM)	0.5 (≈ 1.75 µM)	32 (≈ 112 µM)		16 (≈ 55.9 µM)	16 (≈ 55.9 µM)	> 32	> 32	> 32	MIC [15]: 0.06 mg/L (≈ 0.21 µM); MIC (Staphylococcus aureus [18]): 0.06 mg/L (≈ 0.21 µM); MIC (Staphylococcus aureus [19]): > 128 mg/L; MIC (Staphylococcus hyicus [20]): > 128 mg/L; MIC (Staphylococcus hyicus [21]): 0.03 mg/L (≈ 0.105 µM); MIC (Staphylococcus hyicus [22]): 0.25 mg/L (≈ 0.873 µM); MIC (Staphylococcus hyicus [23]): > 128 mg/L; MIC (Staphylococcus hyicus [24]): 0.03 mg/L (≈ 0.105 µM); MIC (Staphylococcus hyicus [25]): 0.125 mg/L (≈ 0.436 µM); MIC (Staphylococcus aureus [26]): 0.25 mg/L (≈ 0.873 µM); MIC (Staphylococcus aureus [29]): > 32 mg/L; MIC (Staphylococcus aureus [30]): > 128 mg/L; MIC (Staphylococcus aureus [31]): 2 mg/L (≈ 6.98 µM)
CCC(C)C(=O)C(=O)NC(C)Cc1c[nH]c2ccccc12 (configuration not stated)				1 (≈ 3.49 µM)	1 (≈ 3.49 µM)	0.5 (≈ 1.75 µM)	0.5 (≈ 1.75 µM)								
